Assay [1] addresses T1, PAR2 (HT-29 cells, trypsin activation) (Homo sapiens, UniProt P55085).
T1 construct: host or cells: HT-29 cells
T1 sequence (P55085 26-397): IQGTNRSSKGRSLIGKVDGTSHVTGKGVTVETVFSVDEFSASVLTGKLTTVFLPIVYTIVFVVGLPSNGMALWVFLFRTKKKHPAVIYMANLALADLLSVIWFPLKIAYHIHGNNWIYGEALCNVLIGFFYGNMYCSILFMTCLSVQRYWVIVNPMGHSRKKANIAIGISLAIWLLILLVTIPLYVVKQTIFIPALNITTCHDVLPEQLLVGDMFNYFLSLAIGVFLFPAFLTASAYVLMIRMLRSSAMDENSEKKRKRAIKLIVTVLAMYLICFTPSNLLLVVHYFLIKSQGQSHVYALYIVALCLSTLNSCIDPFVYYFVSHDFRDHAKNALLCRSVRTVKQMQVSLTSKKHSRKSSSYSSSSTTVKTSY
In words: Ca FLIPR TETRA assay, ANTAGONIST mode, stimulation with 3.1 U/mL trypsin. Type of assay: cell-based. To be noted: HT-29 cells, antagonist mode, stimulation with 3.1 U/mL trypsin. An outline of the steps:
(§1)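 Antagonist-mode FLIPR Tetra Ca2+ readout: after 30 min r.t. compound pre-incubation, HT-29 cells are challenged with trypsin (3.1 U/mL final), SLIGKV (8 μM), thrombin (1 U/mL) or UTP (0.6 μM). Cells were plated overnight in 1% FBS medium and dye-loaded with Calcium 5; an initial read checks compound agonism.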

The test system of assay [2] is UTP-stimulated Ca2+ response in HT-29 cells. Nature of the assay: Ca FLIPR TETRA assay, ANTAGONIST mode, stimulation with 0.6 μM UTP. The class given is cell-based, human. To be noted: Homo sapiens; HT-29 cells, antagonist mode, stimulation with 0.6 μM UTP. An outline of the steps: as §1
In assay [3] the test system is Thrombin-stimulated Ca2+ response in HT-29 cells. Nature of the assay: Ca FLIPR TETRA assay, ANTAGONIST mode, stimulation with 1 U/mL Thrombin. Type of assay: cell-based, human. To be noted: Homo sapiens; HT-29 cells, antagonist mode, stimulation with 1 U/mL Thrombin. Put shortly:
as §1

In assay [4] the target is T2, PAR2 (HT-29 cells, SLIGKV activation) (Homo sapiens, UniProt P55085).
T2 construct: host or cells: HT-29 cells
T2 sequence (P55085 26-397): T1 sequence (P55085 26-397)
In words: Ca FLIPR TETRA assay, ANTAGONIST mode, stimulation with 8 μM SLIGKV. Type of assay: cell-based. The settings on record: HT-29 cells, antagonist mode, stimulation with 8 μM SLIGKV. An outline of the steps: as §1

pIC50: −log10 of the molar value. Bounds are passed on as bounds.

The pIC50 is the IC50 on a negative log10 scale, so that one unit is a factor of ten. On to `Cc1ccc(-c2cc(C(C)(C)C)c3nc(C(=O)N4CCN(C(=O)c5nnc(C)o5)CC4(C)C)cn3n2)cc1` [Compound I-393], for which the negative-log IC50 (pIC50) was 8.82 in assay [1], less than 6.00 in assay [2], less than 6.00 in assay [3] and 8.80 in assay [4].

With `Cc1ccc(-c2cc(C(C)(C)C)c3nc(C(=O)N4CCN(C(=O)c5ccn[nH]5)CC4(C)C)cn3n2)cc1` [Compound I-394], the negative-log IC50 (pIC50) in assay [1] is 8.96; in assay [2] it was less than 6.00; in assay [3], less than 6.00; in assay [4], 9.05.

Turning to `Cc1ccc(-c2cc(C(C)(C)C)c3nc(C(=O)N4CCN(C(=O)c5cc(C)n[nH]5)CC4(C)C)cn3n2)cc1` [Compound I-395], the pIC50 is 9.30 in assay [1], less than 6.00 in assay [2], less than 6.00 in assay [3] and 9.22 in assay [4].

As for `Cc1ccc(-c2cc(C(C)(C)C)c3nc(C(=O)N4CCN(C(=O)[C@H]5C[C@@](C)(O)C5)CC4(C)C)cn3n2)cc1` [Compound I-396], the pIC50 was 9.15 in assay [1], less than 6.00 in assay [2], less than 6.00 in assay [3] and 9.40 in assay [4].

As for `Cc1ccc(-c2cc(C(C)(C)C)c3nc(C(=O)N4CCN(C(=O)c5nc(C)n[nH]5)CC4(C)C)cn3n2)cc1` [Compound I-397], the negative-log IC50 (pIC50) in assay [1] was 9.22; in assay [2] it was less than 6.00; in assay [3] it was less than 6.00; in assay [4] it was 9.22.

With `CC(C)(C)c1cc(-c2ccc(C(F)(F)F)cc2)nn2cc(C(=O)N3CCN(C(=O)c4ccccn4)CC3(C)C)nc12` [Compound I-398], the pIC50 was 8.59 in assay [1], less than 6.00 in assay [2], less than 6.00 in assay [3] and 8.51 in assay [4].

For the compound `CC(C)(C)c1cc(-c2ccc(C(F)(F)F)cc2)nn2cc(C(=O)N3CCN(C(=O)c4ncccn4)CC3(C)C)nc12` [Compound I-399], the negative-log IC50 (pIC50) in assay [1] was 8.82; in assay [2], less than 6.00; in assay [3], less than 6.00; in assay [4], 8.74.

On to `Cc1nnc(C(=O)N2CCN(C(=O)c3cn4nc(-c5ccc(C(F)(F)F)cc5)cc(C(C)(C)C)c4n3)C(C)(C)C2)o1` [Compound I-400], for which the negative-log IC50 (pIC50) in assay [1] is 8.55; in assay [2], less than 6.00; in assay [3] it was less than 6.00; in assay [4], 8.44.

For the compound `CC(C)(C)c1cc(-c2ccc(C(F)(F)F)cc2)nn2cc(C(=O)N3CCN(C(=O)c4ccn[nH]4)CC3(C)C)nc12` [Compound I-401], the pIC50 in assay [1] was 8.82; in assay [2] it was less than 6.00; in assay [3], less than 6.00; in assay [4], 8.68.

`Cc1cc(C(=O)N2CCN(C(=O)c3cn4nc(-c5ccc(C(F)(F)F)cc5)cc(C(C)(C)C)c4n3)C(C)(C)C2)[nH]n1` [Compound I-402]: the pIC50 in assay [1] is 9.00; in assay [2], less than 6.00; in assay [3], less than 6.00; in assay [4], 9.10.

`Cc1n[nH]c(C(=O)N2CCN(C(=O)c3cn4nc(-c5ccc(C(F)(F)F)cc5)cc(C(C)(C)C)c4n3)C(C)(C)C2)n1` [Compound I-403]: the pIC50 is 8.82 in assay [1], less than 6.00 in assay [2], less than 6.00 in assay [3] and 9.00 in assay [4].

`Cc1cccc(-c2cc(C(C)(C)C)c3nc(C(=O)N4CCN(C(=O)c5ccn[nH]5)CC4(C)C)cn3n2)c1` [Compound I-404]: the pIC50 is 8.37 in assay [1], less than 6.00 in assay [2], 6.16 in assay [3] and 9.05 in assay [4].

In the case of `Cc1cc(-c2cc(C(C)C)c3nc(C(=O)N4CCN(c5cn[nH]c5)C(=O)C4(C)C)cn3n2)ccc1F` [Compound I-405], the negative logarithm of the IC50 (pIC50) in assay [1] is 8.74; in assay [2] it was less than 6.00; in assay [3], less than 6.00; in assay [4] it was 8.80.

Take `Cc1cccc(-c2cc(C(C)(C)C)c3nc(C(=O)N4CCN(C(=O)c5cc(C)n[nH]5)CC4(C)C)cn3n2)c1` [Compound I-406]: the pIC50 in assay [1] was 8.55; in assay [2], less than 6.00; in assay [3], 6.43; in assay [4], 8.66.

As to `Cc1cccc(-c2cc(C(C)(C)C)c3nc(C(=O)N4CCN(C(=O)c5c[nH]c(C)n5)CC4(C)C)cn3n2)c1` [Compound I-407], the pIC50 in assay [1] is 8.29; in assay [2], less than 6.00; in assay [3] it was less than 6.00; in assay [4] it was 8.25.

As to `Cc1cccc(-c2cc(C(C)(C)C)c3nc(C(=O)N4CCN(C(=O)c5nc(C)n[nH]5)CC4(C)C)cn3n2)c1` [Compound I-408], the pIC50 in assay [1] is 8.37; in assay [2], less than 6.00; in assay [3], 6.27; in assay [4], 8.55.

Regarding `Cc1cccc(-c2cc(C(C)(C)C)c3nc(C(=O)N4CCN(C(=O)C5CC(C)(O)C5)CC4(C)C)cn3n2)c1` (stereo not shown) [Compound I-409], the pIC50 is 8.77 in assay [1], less than 6.00 in assay [2], 6.08 in assay [3] and 8.77 in assay [4].

Consider `Cc1cccc(-c2cc(C(C)(C)C)c3nc(C(=O)N4CCN(C(=O)c5nnc(C)o5)CC4(C)C)cn3n2)c1` [Compound I-410], for which the pIC50 in assay [1] was 8.09; in assay [2], less than 6.00; in assay [3], 6.02; in assay [4] it was 8.20.

For the compound `Cc1cccc(-c2cc(C(C)(C)C)c3nc(C(=O)N4CCN(C(=O)c5ccccn5)CC4(C)C)cn3n2)c1` [Compound I-411], the pIC50 was 8.19 in assay [1], less than 6.00 in assay [2], 6.06 in assay [3] and 8.32 in assay [4].

As to `Cc1cccc(-c2cc(C(C)(C)C)c3nc(C(=O)N4CCN(C(=O)c5ncccn5)CC4(C)C)cn3n2)c1` [Compound I-412], the negative-log IC50 (pIC50) in assay [1] is 8.00; in assay [2], less than 6.00; in assay [3], 6.15; in assay [4] it was 8.19.

As to `Cc1nc(C(=O)N2CCN(C(=O)c3cn4nc(-c5ccc(C(F)(F)F)cc5)cc(C(C)C)c4n3)C(C)(C)C2)n[nH]1` [Compound I-413], the pIC50 in assay [1] was 8.37; in assay [2], less than 6.00; in assay [3], less than 6.00; in assay [4] it was 8.47.

For the compound `Cc1n[nH]c(C(=O)N2CCN(C(=O)c3cn4nc(-c5ccc(F)c(C)c5)cc(C(C)(C)C)c4n3)C(C)(C)C2)n1` [Compound I-414], the pIC50 in assay [1] is 8.89; in assay [2], less than 6.00; in assay [3], less than 6.00; in assay [4], 9.00.

`Cc1ccc(-c2cc(C(C)(C)C)c3nc(C(=O)N4CCN(C(=O)[C@H]5C[C@@](C)(O)C5)CC4(C)C)cn3n2)cc1F` [Compound I-415]: the negative-log IC50 (pIC50) in assay [1] is 9.30; in assay [2], less than 6.00; in assay [3] it was less than 6.00; in assay [4] it was 9.52.

Consider `Cc1nc(C(=O)N2CCN(C(=O)c3cn4nc(-c5ccc(C)c(F)c5)cc(C(C)(C)C)c4n3)C(C)(C)C2)n[nH]1` [Compound I-416], for which the pIC50 is 9.22 in assay [1], less than 6.00 in assay [2], less than 6.00 in assay [3] and 9.22 in assay [4].

As to `Cc1cc(-c2cc(C(C)(C)C)c3nc(C(=O)N4CCN(c5c[nH]cn5)C(=O)C4(C)C)cn3n2)ccc1F` [Compound I-418], the negative-log IC50 (pIC50) is 8.15 in assay [1], less than 6.00 in assay [2], less than 6.00 in assay [3] and 8.12 in assay [4].

The values are drawn from patent publication US20190119282A1, “IMIDAZOPYRIDAZINES USEFUL AS INHIBITORS OF THE PAR-2 SIGNALING PATHWAY” (Vertex Pharmaceuticals Incorporated, priority 2013, published 2019).
